Data reported in patent US20220403001A1, “PDE5 DERIVED REGULATORY CONSTRUCTS AND METHODS OF USE IN IMMUNOTHERAPY” (Obsidian Therapeutics, Inc., priority 2018, published 2022).

Tests used:
hPDE5 mutants [1] = biological target: hPDE5 mutants (Homo sapiens, UniProt O76074); assay: GFP MFI by FACS in HCT116 cells transduced with hPDE5 constructs; type: cell-based; conditions: HCT-116
hPDE5 mutants [2] = assay: as above; type: cell-based, human; conditions: for MFI / Stabilization ratio / Vardenafil dose response (MFI of GFP): HCT116; for Sildenafil dose response (MFI) / Tadalafil dose response (MFI): HCT 116
hPDE5 mutants [3] = assay: Western blot of AcGFP/GFP protein levels in HCT 116 cells expressing hPDE5 mutants; type: cell-based, human; conditions: 10 μM Vardenafil, 24 hours, HCT 116
Protocol: Protein expression analysis of the combination mutants was performed in parallel via western blot. […] GAPDH levels were also analyzed to ensure even protein loading.

Q: What does the source list for “OT-001222: hPDE5 (F736A, D764N) GFP construct”?
A: Sildenafil Stabilization ratio (hPDE5 mutants [1]; 10 μM, 48 h): 1.10; Vardenafil Stabilization ratio (hPDE5 mutants [1]; 10 μM, 48 h): 4.26; MFI Sildenafil (hPDE5 mutants [1]; GFP, 10 μM Sildenafil 48 h): 13862; MFI Vardenafil (hPDE5 mutants [1]; GFP, 10 μM Vardenafil 48 h): 53848; Vardenafil Stabilization ratio (hPDE5 mutants [2]; 10 μM, 48 h, HCT-116): 4.26; MFI DMSO (hPDE5 mutants [2]; GFP, DMSO 48 h, HCT-116): 12633; MFI (hPDE5 mutants [2]; Sildenafil 0.04 μM, 24 h): 8688; Stabilization ratio (hPDE5 mutants [2]; Sildenafil 0.04 μM, 24 h): 0.81; MFI (hPDE5 mutants [2]; Sildenafil 0.5 μM, 4 hours): 5322; Stabilization ratio (hPDE5 mutants [2]; Sildenafil 0.5 μM, 4 hours): 1.64; MFI (hPDE5 mutants [2]; Sildenafil 0.5 μM, 8 hours): 5083; Stabilization ratio (hPDE5 mutants [2]; Sildenafil 0.5 μM, 8 hours): 1.57; MFI (hPDE5 mutants [2]; Sildenafil 0.5 μM, 12 hours): 5122; Stabilization ratio (hPDE5 mutants [2]; Sildenafil 0.5 μM, 12 hours): 1.58; MFI (hPDE5 mutants [2]; Sildenafil 0.5 μM, 16 hours): 5600; Stabilization ratio (hPDE5 mutants [2]; Sildenafil 0.5 μM, 16 hours): 1.73; MFI (hPDE5 mutants [2]; Sildenafil 0.5 μM, 20 hours): 6003; Stabilization ratio (hPDE5 mutants [2]; Sildenafil 0.5 μM, 20 hours): 1.85; MFI (hPDE5 mutants [2]; Sildenafil 0.5 μM, 24 hours): 6144; Stabilization ratio (hPDE5 mutants [2]; Sildenafil 0.5 μM, 24 hours): 1.89; MFI (hPDE5 mutants [2]; Sildenafil 0.5 μM, 48 hours): 6682; Stabilization ratio (hPDE5 mutants [2]; Sildenafil 0.5 μM, 48 hours): 2.06; MFI (hPDE5 mutants [2]; Sildenafil 0.5 μM, 72 hours): 6906; Stabilization ratio (hPDE5 mutants [2]; Sildenafil 0.5 μM, 72 hours): 2.13; MFI (hPDE5 mutants [2]; Sildenafil 3.33 μM, 24 h): 10384; Stabilization ratio (hPDE5 mutants [2]; Sildenafil 3.33 μM, 24 h): 0.97; MFI (hPDE5 mutants [2]; Sildenafil 5 μM, 4 hours): 6314; Stabilization ratio (hPDE5 mutants [2]; Sildenafil 5 μM, 4 hours): 1.88; MFI (hPDE5 mutants [2]; Sildenafil 5 μM, 8 hours): 7021; Stabilization ratio (hPDE5 mutants [2]; Sildenafil 5 μM, 8 hours): 2.09; MFI (hPDE5 mutants [2]; Sildenafil 5 μM, 12 hours): 9199; Stabilization ratio (hPDE5 mutants [2]; Sildenafil 5 μM, 12 hours): 2.73; MFI (hPDE5 mutants [2]; Sildenafil 5 μM, 16 hours): 12280; Stabilization ratio (hPDE5 mutants [2]; Sildenafil 5 μM, 16 hours): 3.65; MFI (hPDE5 mutants [2]; Sildenafil 5 μM, 20 hours): 13280; Stabilization ratio (hPDE5 mutants [2]; Sildenafil 5 μM, 20 hours): 3.95; MFI (hPDE5 mutants [2]; Sildenafil 5 μM, 24 hours): 16705; Stabilization ratio (hPDE5 mutants [2]; Sildenafil 5 μM, 24 hours): 4.97; MFI (hPDE5 mutants [2]; Sildenafil 5 μM, 48 hours): 22061; Stabilization ratio (hPDE5 mutants [2]; Sildenafil 5 μM, 48 hours): 6.56; MFI (hPDE5 mutants [2]; Sildenafil 5 μM, 72 hours): 26995; Stabilization ratio (hPDE5 mutants [2]; Sildenafil 5 μM, 72 hours): 8.02; MFI (hPDE5 mutants [2]; Sildenafil 10 μM, 24 h): 13263; Stabilization ratio (hPDE5 mutants [2]; Sildenafil 10 μM, 24 h): 1.24; Sildenafil dose response (MFI) (hPDE5 mutants [2]; Sildenafil 11.11 μM, 48 h): 5675; MFI (hPDE5 mutants [2]; Sildenafil 30 μM, 24 h): 26837; Stabilization ratio (hPDE5 mutants [2]; Sildenafil 30 μM, 24 h): 2.5; Sildenafil dose response (MFI) (hPDE5 mutants [2]; Sildenafil 33.33 μM, 48 h): 9677; Sildenafil dose response (MFI) (hPDE5 mutants [2]; Sildenafil 100.00 μM, 48 h): 37494; Destabilizing mutation co-efficient ratio (hPDE5 mutants [2]; Sildenafil dose response experiment (Table 27), vs OT-001216): 0.17; Vardenafil dose response (MFI of GFP) (hPDE5 mutants [2]; Table 33, 0.01 μM, 48 h): 4444; Vardenafil dose response (MFI of GFP) (hPDE5 mutants [2]; Table 33, 0.04 μM, 48 h): 4934; Vardenafil dose response (MFI of GFP) (hPDE5 mutants [2]; Table 33, 3.33 μM, 48 h): 10516; Vardenafil dose response (MFI of GFP) (hPDE5 mutants [2]; Table 33, 10.00 μM, 48 h): 24927; MFI (hPDE5 mutants [2]; Tadalafil 11.11 μM, 24 h): 13789; Stabilization ratio (hPDE5 mutants [2]; Tadalafil 11.11 μM, 24 h): 2.28; Tadalafil dose response (MFI) (hPDE5 mutants [2]; Tadalafil 11.11 μM, 48 h): 8299; MFI (hPDE5 mutants [2]; Tadalafil 33.33 μM, 24 h): 20464; Stabilization ratio (hPDE5 mutants [2]; Tadalafil 33.33 μM, 24 h): 3.39; Tadalafil dose response (MFI) (hPDE5 mutants [2]; Tadalafil 33.33 μM, 48 h): 15831; MFI (hPDE5 mutants [2]; Tadalafil 100 μM, 24 h): 23542; Stabilization ratio (hPDE5 mutants [2]; Tadalafil 100 μM, 24 h): 3.9; Tadalafil dose response (MFI) (hPDE5 mutants [2]; Tadalafil 100.00 μM, 48 h): 31020; Destabilizing mutation coefficient (hPDE5 mutants [2]; Tadalafil dose response experiment (Table 29), vs OT-001216): 0.17; MFI (hPDE5 mutants [2]; Vardenafil 0.04 μM, 24 h): 6174; Stabilization ratio (hPDE5 mutants [2]; Vardenafil 0.04 μM, 24 h): 0.80; MFI (hPDE5 mutants [2]; Vardenafil 3.33 μM, 24 h): 29520; Stabilization ratio (hPDE5 mutants [2]; Vardenafil 3.33 μM, 24 h): 3.84; MFI (hPDE5 mutants [2]; Vardenafil 10 μM, 24 h): 29971; Stabilization ratio (hPDE5 mutants [2]; Vardenafil 10 μM, 24 h): 3.90; MFI (hPDE5 mutants [2]; Vardenafil 30 μM, 24 h): 46109; Stabilization ratio (hPDE5 mutants [2]; Vardenafil 30 μM, 24 h): 5.99; Destabilizing mutation coefficient (hPDE5 mutants [2]; Vardenafil dose response experiment (Table 28), vs OT-001216): 0.12; Destabilizing mutation coefficient (hPDE5 mutants [2]; vs wildtype OT-001216, absence of ligand, HCT-116): 0.19; AcGFP protein levels (western blot) (hPDE5 mutants [3]): Vardenafil dependent stabilization of AcGFP protein levels
